Results reported in patent US9320760B2, “Compositions and methods of use of compounds to increase cancer patient survival time” (BioNumerik Pharmaceuticals, Inc., priority 2008, dated 2016).
Where “and” joins values, the source holds several entries; their conditions need not be identical. Equal entries are not always repeated.

Tests used:
[1] = target: T1, GST (m1-1 isotype of GST) (Homo sapiens, UniProt P09488); test: GST assay: conjugation of reduced glutathione to 1-chloro-2,4-dinitrobenzene (CDNB), 340 nm; format: biochemical; settings: for Slope Abs/min: individual assay run, 1 mM GSH, slope 8.9 to 13.1 min, 20° C.; for Slope Mean: mean of three runs (0 mM control 0.0449); for Relative Activity: normalized to reactions with no Tavocept
T1 construct: purchased
T1 sequence (P09488 1-218): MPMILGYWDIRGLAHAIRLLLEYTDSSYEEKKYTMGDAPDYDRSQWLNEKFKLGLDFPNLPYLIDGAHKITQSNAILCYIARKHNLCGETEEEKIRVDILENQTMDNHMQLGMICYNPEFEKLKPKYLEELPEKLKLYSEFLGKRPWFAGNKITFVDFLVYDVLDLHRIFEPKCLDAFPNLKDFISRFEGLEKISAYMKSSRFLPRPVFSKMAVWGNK
Protocol: An in vitro assay for GST has been developed and reported. See, Meyer, D. J. and Ketterer, B., Purification of soluble human glutathione S-transferases. Methods Enzymol. 252:53-65 (1995). This assay monitors the conjugation of reduced glutathione to 1-chloro-2,4-dinitrobenzene (CDNB), as illustrated in Reaction Scheme II, below.
Reduced thiol forms a conjugate with CDNB (extinction coefficient=9600 M^−1 cm^−1), which is detected at 340 nm. […] A typical 1 mL assay was set up by mixing 500 μL NaHPO4 buffer (200 mM, pH 6.5), 20 μL GSH (50 mM), 20 μL CDNB (50 mM), and 458 μL sterile water. Reactions were incubated at 20° C. in the cuvette holder of the spectrophotometer for approximately 5 min. prior to initiating the assay with the addition of enzyme (m1-1 isotype of GST; activity >100 U/mg). The enzyme stock purchased from the vendor was diluted 1:100 in 200 mM NaHPO4 buffer (pH 6.5), and 2 μL of the diluted enzyme was added to initiate the reaction. The final amount of enzyme added to the assay was typically 0.002 U. Assays were run at 20° C. in 1 mL quartz cuvettes (Hellma Scientific). Slopes were measured in the linear range of the assay (i.e., typically between 5 to 10 min.). […] Final reaction volumes were fixed at 1 mL by adjusting the amount of water added.
All UV-visible assays were performed using a Varian Cary 100 spectrophotometer equipped with a thermostatic jacketed multi-cell holder. The default parameters of the Cary Win UV Enzyme Kinetics application (version 2.00) were used; with the exceptions of using both the visible and deuterium lamps, and setting the wavelength to 340 nm, the temperature to 20° C., and the maximal duration of the assay at 30 minutes.
Raw data was obtained on a Cary 100 spectrophotometer. […] The first phase was a baseline corresponding to the time prior to addition of enzyme (typically 2-5 min. in duration). Assays in the first phase of the reaction contained only substrate, buffer and (in some assays) Tavocept™. The spectrophotometer was put in pause mode while enzyme (GST) was added and mixed into the assay reactions. No absorbance values were collected during the process of enzyme addition. The region of experimental interest was during the linear phase of the enzyme reaction, which immediately followed the addition of enzyme. The linear phase is of experimental interest because it is when the classical model of Michaelis-Menton kinetics holds true. During this phase the substrate concentration is high (>Km for enzyme) and, therefore, the rate of catalysis is independent of the substrate concentration. It was during this time that reaction rates (i.e., slopes of change in absorbance with time) were measured using the Cary 100 software. The duration of the linear phase was between 5-10 minutes, depending upon the specific reaction conditions. Reactions were considered complete when substrate concentration was no longer saturating and became a rate limiting factor of the assay. When the substrate was limiting, the reaction rate deviated from linearity. This end phase of the reaction was typically observed after 10 to 15 minutes. Absorbance and time values during the end phase of the reaction were not used in slope calculations because the reaction was effectively over at this point as the reaction no longer followed the classical Michaelis-Menton model for enzyme kinetics. Completion of the reaction on the Cary software could be detected visually by overlaying a straight line beginning at the addition of enzyme and extending past the end phase of the assay curve. Upon completion of a set of reactions data was stored as an electronic “batch” file. Sigma Plot was used specifically to show the mean of assays run in triplicate with linear regression lines and error bars illustrating standard deviation. Descriptive statistics (mean and standard deviation) were used to describe and summarize the results of the experiments. The results of these experiments are illustrated in FIG. 16. […]

[2] = target: T2, Thioredoxin Reductase + Thioredoxin (Bos taurus, UniProt O97680); test: NADPH oxidation at 340 nm, coupled thioredoxin (TX)/thioredoxin reductase (TXR)/NADPH system; format: biochemical, bovine
T2 sequence (O97680 1-105): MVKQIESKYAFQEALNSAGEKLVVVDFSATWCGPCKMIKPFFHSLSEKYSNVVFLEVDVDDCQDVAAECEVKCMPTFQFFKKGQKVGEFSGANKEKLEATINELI
Protocol: Biochemistry 21:6628-6633 (1982).
Data was then collected and plotted in Microsoft Excel. Error calculations, and graphical representations were performed in Microsoft Excel and Kaleidograph (ver. 3.5). Nonlinear data was graphically rendered using Kaleidograph. ANOVA and other statistical analyses were performed using SAS (ver. 8.2). Unless otherwise noted, significance level was set at 0.05, and error bars represent actual experimental standard deviation.
It should be noted that for the purposes of FIG. 17 only, thioredoxin is labeled TXR and thioredoxin reductase is labeled TRR.
Table 4, below, illustrates that various Formula (I) compounds (i.e., disulfide-containing compounds) of the present invention can serve as alternate substrate inhibitors for the coupled thioredoxin (TX)/thioredoxin reductase (TXR)/NADPH system as measured by the oxidation of NADPH. In Table 4, the Formula (I) compounds were utilized at a concentration of 0.5 mM.

[3] = interference with paclitaxel and platinum regimens in animal models; format: in vivo
Text: An important element of Tavocept's™ effectiveness as a compound in the treatment of cancer is its selectivity for normal cells versus cancer cells and its inability to interfere with the anti-cancer activity of chemotherapeutic agents.

[4] = system: breast cancer cell lines; test: cytotoxicity study in combination with cisplatin, breast cancer cell lines; format: cell-based, human; settings: Tavocept in combination with cisplatin vs cisplatin only controls

O=S(=O)([O-])CCSSCCS(=O)(=O)[O-].[Na+].[Na+] [Tavocept™, disodium 2,2′-dithio-bis-ethane sulfonate]
Slope Abs/min ([1]; Tavocept 1.1 mM): 0.0437 Abs/min and 0.0407 Abs/min and 0.0427 Abs/min | Slope Mean ([1]; Tavocept 1.1 mM): 0.0424 Abs/min | Relative Activity ([1]; Tavocept 1.1 mM): 94.4% | Slope Abs/min ([1]; Tavocept 3.3 mM): 0.0295 Abs/min and 0.0242 Abs/min and 0.0284 Abs/min | Slope Mean ([1]; Tavocept 3.3 mM): 0.0274 Abs/min | Relative Activity ([1]; Tavocept 3.3 mM): 61% | Slope Abs/min ([1]; Tavocept 10 mM): 0.0155 Abs/min and 0.0158 Abs/min and 0.0139 Abs/min | Slope Mean ([1]; Tavocept 10 mM): 0.0151 Abs/min | Relative Activity ([1]; Tavocept 10 mM): 33.6% | increase in GST inhibition ([1]; Tavocept raised from 1.1 mM to 3.3 mM): ~6 times | NADPH Oxidation, Thioredoxin Reductase + Thioredoxin ([2]; Disulfide 0.5 mM, minimum of triplicate assays): 13.1 ± 0.2 nmol/min/mL | NADPH oxidation by TXR in the presence of TX ([2]; FIG. 17, increasing Tavocept concentration): concentration-dependent increase | oxidation of reduced thioredoxin to oxidized thioredoxin ([2]; result in words): drives the oxidation | interference with paclitaxel and platinum regimens [3]: did not interfere | cell death [4]: increase in cell death
